From publication PMC10389753, “Rational Design of Chitin Deacetylase Inhibitors for Sustainable Agricultural Use Based on Molecular Topology” (Journal of Agricultural and Food Chemistry, 2022) come the findings set out here.

One assay concerns the target T1, PxCDA2 (Podosphaera xanthii, UniProt A0A6S4IDJ3).
T1 construct: recombinant, N-terminal 6-His tag, expressed in E. coli
The assay can be described thus: fluorescamine assay, colloidal chitin substrate. Format: biochemical. The text has this:
fluorescamine assay, colloidal chitin substrate on PxCDA2

Another assay addresses T2, PxCDA1 (Podosphaera xanthii, UniProt A0A6S4IFB1).
T2 construct: recombinant, N-terminal 6-His tag, expressed in E. coli
The assay can be described thus: fluorescamine assay, colloidal chitin substrate. It counts as biochemical. From the text: fluorescamine assay, colloidal chitin substrate on PxCDA1

T1 sequence (A0A6S4IDJ3 23-314 limits assumed): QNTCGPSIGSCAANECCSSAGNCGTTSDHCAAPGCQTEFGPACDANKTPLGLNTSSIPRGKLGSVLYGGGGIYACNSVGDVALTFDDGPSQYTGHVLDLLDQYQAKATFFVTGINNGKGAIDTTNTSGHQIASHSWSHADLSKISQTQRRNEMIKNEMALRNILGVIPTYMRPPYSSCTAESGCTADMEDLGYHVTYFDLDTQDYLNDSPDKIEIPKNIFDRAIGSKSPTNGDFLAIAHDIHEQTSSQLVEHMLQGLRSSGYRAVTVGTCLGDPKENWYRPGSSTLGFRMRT
T2 sequence (A0A6S4IFB1 23-324 limits assumed): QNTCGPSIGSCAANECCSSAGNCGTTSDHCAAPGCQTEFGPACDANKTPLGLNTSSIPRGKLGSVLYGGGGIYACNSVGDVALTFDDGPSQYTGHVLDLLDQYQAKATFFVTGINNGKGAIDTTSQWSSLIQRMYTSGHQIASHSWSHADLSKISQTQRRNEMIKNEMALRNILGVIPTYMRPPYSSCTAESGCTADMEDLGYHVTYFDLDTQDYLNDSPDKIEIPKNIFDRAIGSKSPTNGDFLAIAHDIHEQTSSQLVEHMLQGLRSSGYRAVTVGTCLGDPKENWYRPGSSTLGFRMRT

Regarding `CN1C(=O)C(=Cc2cccc(OCC(=O)O)c2)C(=O)N(C)C1=O` [VS#2-1], the inhibition (as a rule, how much of the control response was suppressed) at 100 µM against PxCDA2 is 74.5%; against PxCDA1, 86.9%.
For `Cn1c(=O)n(CC(=O)O)c(=O)c2c1nc1n2CCS1` [VS#2-2], in that order: 93% and 79.4%.
For `C=CCN1C(=O)NC(=O)/C(=C/c2ccc(OCC(=O)O)c(OC)c2)C1=O` [VS#2-3], in that order: 74.5% and 86.8%.
